{"source": "the supplement of paper PMC10307832", "data": [{"compound": "CC1(COc2ccc3c(c2)ncn3-c2ccc3cccc(N4CCC(N)CC4)c3n2)COC1 [Crenolanib] + Cc1nc(Nc2ncc(C(=O)Nc3c(C)cccc3Cl)s2)cc(N2CCN(CCO)CC2)n1 [Dasatinib] (partner 0.075 µM)", "assay": "relative viability (nuclei count vs DMSO), 5 days (fraction); higher = more cells survive", "conditions": "first compound 0.1 µM", "outline": "(§1)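 Lung cancer cell lines in 1536-well plates got either a single drug or a fixed anchor-drug dose together with five library-drug doses (not always all listed) in √10 steps, by pin tool, on the day after seeding. Nuclei were counted after 5 days, and relative viability is the treated-to-vehicle ratio of nuclei counts. Values are medians of duplicate plates.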", "values": [{"cell line": "HOP-62", "relative viability": 0.578}, {"cell line": "NCI-H1355", "relative viability": 0.681}, {"cell line": "NCI-H650", "relative viability": 0.425}, {"cell line": "CAL-12T", "relative viability": 0.498}, {"cell line": "NCI-H1666", "relative viability": 0.745}, {"cell line": "H3255", "relative viability": 0.376}, {"cell line": "NCI-H23", "relative viability": 0.71}, {"cell line": "NCI-H1915", "relative viability": 0.304}, {"cell line": "NCI-H1437", "relative viability": 0.361}, {"cell line": "NCI-H322M", "relative viability": 0.255}, {"cell line": "NCI-H2085", "relative viability": 0.263}, {"cell line": "NCI-H1793", "relative viability": 0.4}, {"cell line": "PC-3 [JPC-3]", "relative viability": 0.974}, {"cell line": "EKVX", "relative viability": 0.561}, {"cell line": "LCLC-103H", "relative viability": 0.477}, {"cell line": "NCI-H1650", "relative viability": 0.29}, {"cell line": "NCI-H1944", "relative viability": 0.213}, {"cell line": "NCI-H1993", "relative viability": 0.588}, {"cell line": "SK-LU-1", "relative viability": 0.159}, {"cell line": "ABC-1", "relative viability": 0.538}, {"cell line": "NCI-H358", "relative viability": 0.188}]}, {"compound": "CC1(COc2ccc3c(c2)ncn3-c2ccc3cccc(N4CCC(N)CC4)c3n2)COC1 [Crenolanib] + Cc1nc(Nc2ncc(C(=O)Nc3c(C)cccc3Cl)s2)cc(N2CCN(CCO)CC2)n1 [Dasatinib] (partner 0.075 µM)", "assay": "relative viability (nuclei count vs DMSO), 5 days (fraction); higher = more cells survive", "conditions": "first compound 0.3162 µM", "outline": "as §1", "values": [{"cell line": "NCI-H441", "relative viability": 0.681}, {"cell line": "LOU-NH91", "relative viability": 0.559}, {"cell line": "NCI-H2023", "relative viability": 0.743}, {"cell line": "A-427", "relative viability": 0.688}, {"cell line": "NCI-H460", "relative viability": 0.565}, {"cell line": "NCI-H727", "relative viability": 0.347}, {"cell line": "NCI-H1755", "relative viability": 0.437}, {"cell line": "NCI-H520", "relative viability": 0.244}, {"cell line": "NCI-H2405", "relative viability": 0.181}, {"cell line": "SW 1573", "relative viability": 0.558}, {"cell line": "NCI-H1395", "relative viability": 0.37}, {"cell line": "201T", "relative viability": 0.528}, {"cell line": "NCI-H1975", "relative viability": 0.395}, {"cell line": "HOP-62", "relative viability": 0.769}, {"cell line": "NCI-H2347", "relative viability": 0.278}, {"cell line": "NCI-H1355", "relative viability": 0.718}, {"cell line": "NCI-H650", "relative viability": 0.404}, {"cell line": "CAL-12T", "relative viability": 0.615}, {"cell line": "NCI-H1666", "relative viability": 0.819}, {"cell line": "H3255", "relative viability": 0.422}, {"cell line": "NCI-H23", "relative viability": 0.848}, {"cell line": "NCI-H1915", "relative viability": 0.294}, {"cell line": "NCI-H1437", "relative viability": 0.377}, {"cell line": "NCI-H322M", "relative viability": 0.251}, {"cell line": "NCI-H2085", "relative viability": 0.216}, {"cell line": "NCI-H1793", "relative viability": 0.404}, {"cell line": "PC-3 [JPC-3]", "relative viability": 1.12}, {"cell line": "EKVX", "relative viability": 0.591}, {"cell line": "LCLC-103H", "relative viability": 0.457}, {"cell line": "NCI-H1650", "relative viability": 0.285}, {"cell line": "NCI-H1944", "relative viability": 0.211}, {"cell line": "NCI-H1993", "relative viability": 0.623}, {"cell line": "SK-LU-1", "relative viability": 0.194}, {"cell line": "ABC-1", "relative viability": 0.608}, {"cell line": "NCI-H358", "relative viability": 0.162}]}, {"compound": "CC1(COc2ccc3c(c2)ncn3-c2ccc3cccc(N4CCC(N)CC4)c3n2)COC1 [Crenolanib] + Cc1nc(Nc2ncc(C(=O)Nc3c(C)cccc3Cl)s2)cc(N2CCN(CCO)CC2)n1 [Dasatinib] (partner 0.075 µM)", "assay": "relative viability (nuclei count vs DMSO), 5 days (fraction); higher = more cells survive", "conditions": "first compound 1 µM", "outline": "as §1", "values": [{"cell line": "NCI-H441", "relative viability": 0.578}, {"cell line": "LOU-NH91", "relative viability": 0.593}, {"cell line": "NCI-H2023", "relative viability": 0.567}, {"cell line": "A-427", "relative viability": 0.64}, {"cell line": "NCI-H460", "relative viability": 0.522}, {"cell line": "NCI-H727", "relative viability": 0.49}, {"cell line": "NCI-H1755", "relative viability": 0.384}, {"cell line": "NCI-H520", "relative viability": 0.309}, {"cell line": "NCI-H2405", "relative viability": 0.196}, {"cell line": "SW 1573", "relative viability": 0.553}, {"cell line": "NCI-H1395", "relative viability": 0.403}, {"cell line": "201T", "relative viability": 0.614}, {"cell line": "NCI-H1975", "relative viability": 0.408}, {"cell line": "HOP-62", "relative viability": 0.684}, {"cell line": "NCI-H2347", "relative viability": 0.295}, {"cell line": "NCI-H1355", "relative viability": 0.488}, {"cell line": "NCI-H650", "relative viability": 0.356}, {"cell line": "CAL-12T", "relative viability": 0.514}, {"cell line": "NCI-H1666", "relative viability": 0.745}, {"cell line": "H3255", "relative viability": 0.338}, {"cell line": "NCI-H23", "relative viability": 0.643}, {"cell line": "NCI-H1915", "relative viability": 0.223}, {"cell line": "NCI-H1437", "relative viability": 0.42}, {"cell line": "NCI-H322M", "relative viability": 0.303}, {"cell line": "NCI-H2085", "relative viability": 0.315}]}]}
